# Literature values in the CATMoS acute toxicity set (Mansouri et al. 2021).
# Values joined by “and” are separate entries in the source; they are usually repeats but may differ in a detail not shown here. Equal values may be shown once.
# Assay: rat acute oral toxicity
# Conditions: in vivo
row,SMILES,LD50
1,O=C(O)C(F)(F)C(F)(F)C(F)(F)C(F)(F)C(F)(F)C(F)(F)C(F)(F)C(F)F,821 mg/kg
2,CCOC(=O)Nc1ccc2c(c1)N(C(=O)CN(C)C)c1ccccc1CC2,78 mg/kg
3,O=C(O)C(F)(F)C(F)F,8570 mg/kg
4,CCCCC(O)C(N)CC (centres undefined),550 mg/kg
5,CCCCOC(=O)CCCCC(=O)OCCCC,12900 mg/kg
6,CC(C)(C)c1cc(CCC(=O)O)ccc1O,1000 mg/kg
7,N#CCNCC#N,710 mg/kg
8,Cc1ccccc1C(=O)Nc1cccc(OC(C)C)c1,10000 mg/kg
9,COc1cc2nc(N3CCN(C(=O)OCC4CC4)CC3)nc(N)c2cc1OC,1150 mg/kg
10,CC(=O)[C@]1(O)Cc2c(O)c3c(c(O)c2[C@@H](O[C@H]2C[C@H](N)[C@H](O)[C@H](C)O2)C1)C(=O)c1ccccc1C3=O,5.43 mg/kg
11,CC(C)(C)C(=O)OCOC(=O)[C@@H]1N2C(=O)[C@@H](N=CN3CCCCCC3)[C@H]2SC1(C)C,9500 mg/kg
12,C=C(CC)C(=O)c1ccc(OCC(=O)O)c(Cl)c1Cl,1000 mg/kg
13,FC(F)(F)C(Cl)Br (centres undefined),5680 mg/kg
14,CCN(CC(=O)OCC(F)(F)F)c1cccc(C)c1,1900 mg/kg
15,CSCCC(O)C(=O)O (centres undefined),3480 mg/kg
16,CCCC(C)CCOC(=O)c1ccccc1C(=O)OCCC(C)CCC (centres undefined),35500 mg/kg
17,CN1CCC(=C2c3ccccc3C=Cc3ccccc32)CC1,295 mg/kg
18,O=C(C=CC(=O)OCCCl)OCCCl,71 mg/kg
19,Cc1ccc(Cc2ccc(C)cc2)cc1,3800 mg/kg and 1700 mg/kg
20,CCCCOP(=O)(O)OCCCC,3200 mg/kg and 3520 mg/kg
21,CCCCCCCCCC(=O)OCCN1CCN(CCCN2c3ccccc3Sc3ccc(C(F)(F)F)cc32)CC1,19 mg/kg
22,C=CCC1(C2C=CCC2)C(=O)N=C(O)NC1=O (centres undefined),205 mg/kg
23,CC(C)NCC(O)c1cc(O)cc(O)c1 (centres undefined),3370 mg/kg
24,CCCCCOc1ccc(Br)cc1COCCN1CCOCC1,1200 mg/kg
25,CCCCN(CCCC)SN(C)C(=O)ON=CC(C)(C)SC,12.5 mg/kg

row,SMILES,LD50
1,C/N=N/Nc1ccc(Br)cc1,467 mg/kg
2,OC(c1ccccc1)(c1ccccc1)C1CCCCN1 (centres undefined),180 mg/kg
3,CCOC(=O)CSP(=O)(OC)OC,385 mg/kg
4,c1ccc(Cc2ccccc2)cc1,2250 mg/kg
5,CCOC(C1=NCC(C)(CC)CN1)c1ccccc1 (centres undefined),220 mg/kg
6,CC(C(=O)O)c1ccc2c(c1)OCc1cc(Cl)ccc1C2=O (centres undefined),12 mg/kg
7,CCOC(=O)c1c[n+](CC)c2n(c1=O)C(C)CCC2 (centres undefined),1350 mg/kg
8,O=C(OCCOCCN1CCCCC1)N1c2ccccc2Sc2cccnc21,530 mg/kg
9,CCCCCCCCCCCCCCCCCC(=O)NC(CCC(=O)O)C(=O)O (centres undefined),3000 mg/kg
10,CC[C@H]1C2C[C@H]3[C@@H]4N(C)c5ccccc5C45C[C@@H](C2[C@H]5O)N3[C@@H]1O (some centres undefined),290 mg/kg
11,COc1ccc(CC(=S)N(C)C)cc1,22 mg/kg
12,CCC(CCN(CC=C(C)C)CC=C(C)C)(C(N)=O)c1cccc2ccccc12 (centres undefined),283 mg/kg
13,CCOc1ccccc1N1CCN(C(=O)CCC2CCCCC2)CC1,2420 mg/kg
14,Cl/C(=N/Nc1c(Cl)cc(Cl)cc1Cl)c1ccccc1,718 mg/kg
15,COC(OC)c1ccccc1[N+](=O)[O-],3420 mg/kg
16,Cl[C@H]1[C@H](Cl)[C@@H](Cl)[C@H](Cl)[C@@H](Cl)[C@H]1Cl (racemic),1000 mg/kg
17,CCCCOCC(C)OCC(C)OCC(C)O (centres undefined),1840 mg/kg
18,CCC/C=C/CO,3500 mg/kg
19,C=C(C)C(=O)OC(=O)COC(C)C,9000 mg/kg
20,CCCCOCCOCCOCCO,5300 mg/kg
21,O=C1CCc2cc(C(=O)CCN3CCN(c4cccc(Cl)c4)CC3)ccc2N1,500 mg/kg
22,Oc1c(Cl)cc(Cl)cc1Sc1cc(Cl)cc(Cl)c1O,492 mg/kg
23,CCC1(c2cccc(O)c2)CCCCN(C)C1 (centres undefined),1260 mg/kg
24,CCOC(=O)C(C)N(C(=O)c1ccccc1)c1ccc(Cl)c(Cl)c1 (centres undefined),1550 mg/kg
25,CC(=O)CCCCCCCC(=O)O,3100 mg/kg

row,SMILES,LD50
1,CC=Cc1ccccc1,3600 mg/kg
2,CCC(O)C(c1ccccc1)N1CCN(CCOc2ccccc2C)CC1 (centres undefined),700 mg/kg
3,COC(=O)C(C)c1ccc(-c2ccsc2)cc1 (centres undefined),2330 mg/kg
4,O=C(OC1CCCCC1)C(Oc1ccc(Cl)cc1)Oc1ccc(Cl)cc1,900 mg/kg
5,CNC(=O)c1cc(Oc2ccc(N)c(F)c2)ccn1,500 mg/kg
6,Cc1cc2[nH]c(C(F)(F)F)nc2cc1Br,77 mg/kg
7,CCC1(NC(N)=O)CCCC1,950 mg/kg
8,Fc1c(Br)c(Br)c2nc(C(F)(F)F)[nH]c2c1Br,9.64 mg/kg
9,CCOP(=S)(OCC)SCn1nc(C)ccc1=O,45 mg/kg
10,Oc1ccc(Sc2ccc(O)cc2)cc1,3360 mg/kg
11,CCN(CCCCOC(=O)c1ccc(OC)c(OC)c1)C(C)Cc1ccc(OC)cc1 (centres undefined),1540 mg/kg
12,N#Cc1ccccc1C#N,30 mg/kg
13,CCN(CC)C(=O)N[C@H]1C[C@@H]2c3cccc4[nH]cc(c34)C[C@H]2N(C)C1,100 mg/kg
14,S=C=NCCN=C=S,112 mg/kg
15,CCOP(=O)(NC(C)=O)SC (centres undefined),500 mg/kg
16,O=C(OCc1ccccc1)c1ccccc1O,2230 mg/kg
17,CC(=O)c1cc2c(cc1C)C(C)(C)C(C)C2C(C)C (centres undefined),2220 mg/kg
18,COC(=O)C(C)N(C(=O)c1ccco1)c1c(C)cccc1C (centres undefined),940 mg/kg
19,CC=CCCCCCCCC(=O)OC,3000 mg/kg
20,COc1cc(OC)cc(OCCO)c1,4050 mg/kg
21,CCN1C[C@H]2CN(C)C[C@@H](C1)C2OC(=O)c1ccc(Cl)cc1 (some centres undefined),383 mg/kg
22,CC(C)COCC(CN(Cc1ccccc1)c1ccccc1)N1CCCC1 (centres undefined),6850 mg/kg
23,N#CCCN1C(=O)C(O)N=C(c2ccccc2F)c2cc(Cl)ccc21 (centres undefined),3500 mg/kg
24,CCOc1ccc(NC(=O)CC(C)=O)cc1,176 mg/kg
